In US9403874B2, “Peptides and use thereof” (IL YANG PHARM. CO.,LTD., priority 2012, dated 2016):

Experiments:
Format in all cases: cell-based
Conditions in all cases: 100 ng/me of peptide; EBV-infected B cells stimulated with anti-CD150; ELISA of culture supernatant
IL-4 = test: Reduction of IL-4 secretion in activated B cells (ELISA)
Method: (§1) In order to determine the activity of the novel peptides synthesized in Example 1 for reducing the secretion of inflammatory cytokines, the activated pathogenic B cells were treated with each of the 18 types of synthesized novel peptides and the reduction in secretion of inflammatory cytokines from the B cells was monitored.
(§2) Specifically, in order to determine whether the novel peptides could weaken the pathogenic B cells which are involved in the development of disease symptoms, the in vitro B cells model which is similar to the joint infiltrative B cells of rheumatoid arthritis was used. The activated pathogenic B cell was generated by stimulating Ebstein Barr virus (EBV)-infected B cells with anti-CD150 antibodies, and the cells were treated with […] of each of the 18 types of novel peptide.
(§3) In order to confirm the effect of 18 types of novel peptides in reducing inflammatory cytokines, the secretion amount of various cytokines (IL-1A, IL-1B, IL-2, IL-4, IL-5, IL-6, IL-8, IL-10, IL-12A, IL-13, IL-17A, GM-CSF, IL-34) secreted from the activated B cells was measured. The supernatants of B cell culture were analyzed enzyme-linked immunosorbent assay (ELISA), and the difference in absorbance (450 nm-570 nm) of the color developing reagent was measured as test results. Based on the measured difference in absorbance (450 nm-570 nm) of the color developing reagent, the absorbance of cytokines secreted when treated with the 18 types of novel […] was calculated in percentage, while setting the absorbance corresponding to the cytokines secreted from the activated B cells stimulated by anti-CD150 as 100%.

GM-CSF = test: Reduction of GM-CSF secretion in activated B cells (ELISA)
Method: as §1, §2, §3

IL-34 = test: Reduction of IL-34 secretion in activated B cells (ELISA)
Method: as §1, §2, §3

IL-13 = test: Reduction of IL-13 secretion in activated B cells (ELISA)
Method: as §1, §2, §3

IL-2 = test: Reduction of IL-2 secretion in activated B cells (ELISA)
Method: as §1, §2, §3

IL-10 = test: Reduction of IL-10 secretion in activated B cells (ELISA)
Method: as §1, §2, §3

IL-1A = test: Reduction of IL-1A secretion in activated B cells (ELISA)
Method: as §1, §2, §3

IL-17A = test: Reduction of IL-17A secretion in activated B cells (ELISA)
Method: as §1, §2, §3

IL-6 = test: Reduction of IL-6 secretion in activated B cells (ELISA)
Method: as §1, §2, §3

IL-1B = test: Reduction of IL-1B secretion in activated B cells (ELISA)
Method: as §1, §2, §3

IL-8 = test: Reduction of IL-8 secretion in activated B cells (ELISA)
Method: as §1, §2, §3

IL-5 = test: Reduction of IL-5 secretion in activated B cells (ELISA)
Method: as §1, §2, §3

IL-12A = test: Reduction of IL-12A secretion in activated B cells (ELISA)
Method: as §1, §2, §3

| Substance | Inhibition rate of each cytokine compared to CD150-stimulated EBV-t B cells (%) IL-4 (IL-4) | Inhibition rate of each cytokine compared to CD150-stimulated EBV-t B cells (%) GM-CSF (GM-CSF) | Inhibition rate of each cytokine compared to CD150-stimulated EBV-t B cells (%) IL-34 (IL-34) | Inhibition rate of each cytokine compared to CD150-stimulated EBV-t B cells (%) IL-13 (IL-13) | Inhibition rate of each cytokine compared to CD150-stimulated EBV-t B cells (%) IL-2 (IL-2) | Inhibition rate of each cytokine compared to CD150-stimulated EBV-t B cells (%) IL-10 (IL-10) | Inhibition rate of each cytokine compared to CD150-stimulated EBV-t B cells (%) IL-1A (IL-1A) | Inhibition rate of each cytokine compared to CD150-stimulated EBV-t B cells (%) IL-17A (IL-17A) | Inhibition rate of each cytokine compared to CD150-stimulated EBV-t B cells (%) IL-6 (IL-6) | Inhibition rate of each cytokine compared to CD150-stimulated EBV-t B cells (%) IL-1B (IL-1B) | Inhibition rate of each cytokine compared to CD150-stimulated EBV-t B cells (%) IL-8 (IL-8) | Inhibition rate of each cytokine compared to CD150-stimulated EBV-t B cells (%) IL-5 (IL-5) | Inhibition rate of each cytokine compared to CD150-stimulated EBV-t B cells (%) IL-12A (IL-12A) |
| --- | --- | --- | --- | --- | --- | --- | --- | --- | --- | --- | --- | --- | --- |
| RDGRTD (SIS-1#17 peptide) | 32.0% | 14.8% | 20.8% | 14.8% | 17.0% | 15.8% | 18.8% | 23.8% | 16.8% | 20.5% | 22.0% | 14.0% | 16.0% |
| RTDCTR (SIS-1#3 peptide) | 13.2% | 7.2% | 9.8% | 10.2% | 12.3% | 25.2% | 14.0% | 11.0% | 18.2% | 20.0% | 19.2% | 17.4% | 19.4% |
| DGRTDG (SIS-1#9 peptide) | 16.0% | 15.0% | 15.0% | 13.2% | 15.5% | 14.2% | 20.4% | 9.2% | 18.8% | 18.2% | 15.4% | 16.2% | 20.8% |
| PSPRDGRTDG (SIS-1#6 peptide) | 20.5% | 21.2% | 31.0% | 29.4% | 23.1% | 4.5% | 12.0% | 42.2% | 33.9% | 15.2% | 28.0% | 15.6% | 30.8% |
